Measured values published in US10704097B2, “Oxidative stress and cardiovascular disease events” (KATHOLIEKE UNIVERSITEIT LEUVEN, priority 2014, dated 2020).
Marks after values point to notes of the source that are not given here.

Key:
[1] = system: DKO (LDL-R−/−×ob/ob) mice; settings: mean ± SD
Method: Breeding and genotyping of LDL-receptor deficient, leptin-deficient ob/ob, and DKO (LDL-R^−/−×ob/ob) mice, on the C57BL/6J background, were performed as previously described (72, 73).
To convert from mg/dL to mM, we divided glucose by 18 (=molecular weight), triglycerides by 89 and total cholesterol by 39. […] To determine glucose tolerance, glucose was measured in samples obtained by tail bleeding before and 15, 30, 60, 120 and 240 minutes after intraperitoneal administration of glucose (20% glucose solution; 2 g/kg). Plasma adiponectin […] were measured with specific mouse ELISA (R&D Systems).

Cox4i1 = Cox4i1 gene expression in aorta of DKO mice (qPCR); settings: 12 weeks treatment, relative RNA expression, mean ± SD
Method: (§1) Total RNA from monocytes, macrophages and vascular tissues was extracted with TRIzol reagent (Invitrogen) and purified on (mi)RNeasy Mini Kit columns (Qiagen). […] First-strand cDNA was generated from total RNA with the SuperScript VILO cDNA synthesis kit (Invitrogen). qPCR analysis was performed on a 7500 Fast Real-Time PCR system using Fast SYBRGreen master mix, according to the supplier protocols (Applied Biosystems). […] For each RNA and microRNA sample, the expression levels of the RNAs as described herein were compared and normalized to reference housekeeping RNAs or microRNAs. […] We compared them with non-treated DKO at 24 weeks. […] Food and water were available ad libitum. […] All mice were sacrificed by Nembutal overdose at the age of 24 weeks (72, 73).

Cox1 = Cox1 gene expression in aorta of DKO mice (qPCR); settings: 12 weeks treatment, relative RNA expression, mean ± SD
Method: as §1

Tfam = Tfam gene expression in aorta of DKO mice (qPCR); settings: 12 weeks treatment, relative RNA expression, mean ± SD
Method: as §1

[2] = DKO mice at 24 weeks, 12 weeks treatment in diet

| SMILES | AUC of IPGTT ([1]; DKO mice, 12 weeks treatment, intraperitoneal glucose tolerance test, glucose 2 g/kg) | Cox4i1 gene expression in aorta (Cox4i1) | Weight ([1]; DKO mice at 24 weeks, 12 weeks treatment in diet (fenofibrate 50, rosiglitazone 10 mg/kg/day)) | Insulin ([1]; DKO mice at 24 weeks, 12 weeks treatment in diet, fasting plasma) | TG (triglyceride) [1, 2] | Total C (cholesterol) [1, 2] | Glucose ([1]; DKO mice at 24 weeks, 12 weeks treatment in diet, overnight fast) | ADN (adiponectin) ([1]; DKO mice at 24 weeks, 12 weeks treatment in diet, plasma) | HOMA-IR ([1]; DKO mice, 12 weeks treatment, fasting insulin × fasting glucose / 22.5) | Cox1 gene expression in aorta (Cox1) | Tfam gene expression in aorta (Tfam) |
| --- | --- | --- | --- | --- | --- | --- | --- | --- | --- | --- | --- |
| CC(C)OC(=O)C(C)(C)Oc1ccc(C(=O)c2ccc(Cl)cc2)cc1 [Fenofibrate] | 75 ± 15 ×10^3 | – | – | – | – | – | – | – | – | – | – |
| CN(CCOc1ccc(CC2SC(=O)NC2=O)cc1)c1ccccn1 (centres unmarked) [Rosiglitazone, rosiglitazone] | – | 2.20 ± 0.64***^/$$/££ | 55 ± 3.6*^/$ g | 69 ± 42 ^ mU/L | 192 ± 96 ^ mg/dl | 700 ± 139*^/$$ mg/dl | 88 ± 18*^/$/£ mg/dl | 16 ± 2.3***^/£££ μg/ml | 16 ± 11 ^ | 1.16 ± 0.40***^/$/£££ | 1.57 ± 0.50***^/$/££ |
